According to patent US5332818A, “Immunosuppressive agent and process of producing the same” (Toray Industries, Inc., priority 1989, dated 1994):

Experiments:
[1] = in words; cited from earlier work
[2] = in words; cited from earlier work; remark: listed apart in the source
[3] = molecular target: T1, μ receptor (Cavia porcellus, UniProt A0ACM8Q262); experiment: Antagonism of morphine (μ) in electrically stimulated isolated organ; format: cell-based, Guinea pig; conditions: for concentration dependency of antagonistic activity: μ receptor, FIGS. 1 and 2; for Slope / γ / pA2 (50% Confidence Limit): μ, in vitro; for pA2 (50% Confidence Limit): NLI value is mean ± S.E.
T1 construct: antagonism of morphine
T1 sequence (A0ACM8Q262 1-400): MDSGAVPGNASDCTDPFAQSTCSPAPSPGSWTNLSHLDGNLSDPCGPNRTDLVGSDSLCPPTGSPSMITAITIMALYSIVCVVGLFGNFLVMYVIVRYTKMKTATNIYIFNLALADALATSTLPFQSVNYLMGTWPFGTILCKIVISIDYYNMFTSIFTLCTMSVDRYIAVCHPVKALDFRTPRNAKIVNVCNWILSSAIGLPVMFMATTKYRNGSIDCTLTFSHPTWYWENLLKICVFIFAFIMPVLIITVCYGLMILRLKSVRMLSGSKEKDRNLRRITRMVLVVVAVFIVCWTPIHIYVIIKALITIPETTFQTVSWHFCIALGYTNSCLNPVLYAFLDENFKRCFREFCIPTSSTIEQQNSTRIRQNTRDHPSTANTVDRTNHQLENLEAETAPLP
Procedure: (§1) The term "δ-opioid antagonist" herein used-means a group of compounds which suppress the inhibition by DADLE or DPDPE of contraction of MVD specimen caused by electric stimulation.
(§2) Ke=[antagonist]/(IC50 ratio -1)
(§3) The IC50 ratio used herein is the value obtained by dividing the IC50 of an agonist, which is measured in the presence of an antagonist, with the IC50 value of the […], that is measured in the absence of the antagonist. Ke value is a value which is introduced for compensating the concentration of antagonist when comparing the IC50 ratio. Thus, the smaller the Ke value, the stronger the antagonist activity.
(§4) The antagonistic activities of the naloxindole hydrochloride and the naltrindole methanesulfonic acid salt obtained in Examples 1 and 3 were determined by the following method:
(§5) Guinea pig ileum (containing μ and κ receptors) and mouse vas deferens were taken out and the organs were subjected to electric stimulations. The activities of the compounds for inhibiting the suppression of contraction of the organs by three agonists, that is, morphine (μ), EKC (κ) and DADLE (δ) were measured.

[4] = test system: mouse spleen cells; experiment: Suppression of mitogen (ConA) reaction; format: cell-based, C57BL/6 mouse; conditions: 48 hours, 3 cases, read-out: Suppression Rate of Mitogen Reaction; for inhibition at 1 µg/mL: 1 μg/ml; for inhibition at 10 µg/mL: 10 μg/ml; for inhibition at 50 µg/mL: 50 μg/ml
Procedure: If mouse spleen cells are cultured in vitro in the presence of concanavalin A (hereinafter referred to as "ConA" for short), the cells are divided and proliferated (mitogen reaction). In this system, the immunosuppressive agent of the present invention or cyclosporin A as a comparative example was added to the culture medium and the effects to the mitogen reaction were examined.
More particularly, C57BL/6 mouse was sacrificed and the spleen was removed. The spleen cells were suspended in RPMI 1640 culture medium containing 10% fetal calf serum (hereinafter referred to as "RPMI 1640" for short) so as to prepare a spleen cell suspension (5×10^6 cells/ml). In the wells of a flat-bottomed 96-well microplate, 100 μl of the suspension was placed and then 50 μl of RPMI 1640 containing ConA (4 μg/ml) as well as 50 μl of RPMI 1640 containing the test compound in the concentration shown in Table 2 were added. The cells were cultured for 48 hours (37° C. 5%CO2) As a control, 50 μl of RPMI 1640 was added. Eight hours before the termination of the culture, 2 μ Ci of [^3 H] thymidine was […], added. After termination of the culture, the cells were collected on a filter paper by using a cell harvester. After drying the filter paper, the filter paper was placed in a vial containing toluene-based scintillator and the radioactivity was measured by a liquid scintillation counter.
The suppression rate of mitogen reaction was calculated according to the following equation: [formula]

[5] = test system: spleen cells; experiment: Suppression of MLR reaction; format: cell-based, mouse (C57BL/6 and mitomycin-treated Balb/c); conditions: for inhibition at 1 µg/mL / inhibition at 10 µg/mL / inhibition at 50 µg/mL: Mus musculus, 72 hours, 3 cases, NTI, NTB, NLI as hydrochloric acid salt, read-out: Suppression Rate of MLR Reaction; for inhibition at 1 µg/mL: 1 μg/ml; for inhibition at 10 µg/mL: 10 μg/ml; for inhibition at 50 µg/mL: 50 μg/ml; for MLR reaction: in words, hydrochloric acid salts
Procedure: If spleen cells from two different lines of mouse which are genetically different, the spleen cells recognize the other type of cells, and the cells are divided and proliferated (MLR reaction).
In this system, hydrochloric acid salt of NTI, NTB or NLI, or for comparison, cyclosporine A was added to the reaction medium and their effect to the MLR reaction was examined.
Balb/c mouse was sacrificed and the spleen was removed. The spleen cells were suspended in RPMI 1640 to prepare a spleen cell suspension (1×10^7 cells/ml). The spleen cells were then cultured in mitomycin C-containing RPMI 1640 for 30 minutes (37° C.) so as to carry out the mitomycin treatment. On the other hand, C57BL/6 mouse was sacrificed and spleen cell suspension (1×10^6 cells/ml) was prepared using RPMI 1640.
In the wells of a 96-well flat-bottomed microplate, 100 μl of C57BL/6 mouse spleen cell suspension, 50 μl of mitomycin-treated Balb/c mouse spleen cell suspension and 50 μl of RPMI 1640 containing the test compound were placed and the cells were cultured for 72 hours (37° C., 5%CO2). As a control, 50 μl of RPMI 1640 was added. Eight hours before the termination of the culture, 2 μCi of [^3 H] thymidine was added. After termination of the culture, the cells were collected on a filter paper by using a cell harvester. After drying the filter paper, the filter paper was placed in a vial containing toluene-based scintillator and the radioactivity was measured by a liquid scintillation counter.
The suppression rate of MLR reaction was calculated according to the following equation: [formula]

[6] = molecular target: T2, δ receptor (Mus musculus, UniProt P32300); experiment: Antagonism of DADLE (δ) in electrically stimulated isolated organ (vas deferens); format: cell-based; conditions: for κ/δ / μ/δ: Ke selectivity ratio; for κ/δ / μ/δ / selectivity to the δ receptors with respect to κ receptors / selectivity to the δ receptors with respect to μ receptors: Table 1; for concentration dependency of antagonistic activity: δ receptor, FIGS. 1 and 2; for Slope / γ / Kb: δ, in vitro; for Kb: read-out: pA2 (50% Confidence Limit) (converted)
T2 construct: from tissue; host or cells: mouse vas deferens, isolated, electrically stimulated
T2 sequence (P32300 whole entry): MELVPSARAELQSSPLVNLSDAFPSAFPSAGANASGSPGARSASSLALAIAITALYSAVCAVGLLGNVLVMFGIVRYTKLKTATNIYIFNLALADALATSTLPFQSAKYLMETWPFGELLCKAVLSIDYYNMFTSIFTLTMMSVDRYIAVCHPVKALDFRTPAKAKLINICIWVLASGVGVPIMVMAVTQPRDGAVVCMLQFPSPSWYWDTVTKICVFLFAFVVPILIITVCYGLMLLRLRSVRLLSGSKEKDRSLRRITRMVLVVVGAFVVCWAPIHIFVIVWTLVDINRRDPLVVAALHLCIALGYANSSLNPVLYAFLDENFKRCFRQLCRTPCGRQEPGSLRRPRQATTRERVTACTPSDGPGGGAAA
Procedure: as §1, §2, §3, §4, §5

[7] = molecular target: T3, κ receptor (Cavia porcellus, UniProt P41144); experiment: Antagonism of EKC (κ) in electrically stimulated isolated organ; format: cell-based, Guinea pig; conditions: for concentration dependency of antagonistic activity: κ receptor, FIGS. 1 and 2; for Slope / γ / Kb: κ, in vitro; for Kb: NLI value is mean ± S.E., read-out: pA2 (50% Confidence Limit) (converted)
T3 construct: from tissue; host or cells: guinea pig ileum, isolated, electrically stimulated
T3 sequence (P41144 whole entry): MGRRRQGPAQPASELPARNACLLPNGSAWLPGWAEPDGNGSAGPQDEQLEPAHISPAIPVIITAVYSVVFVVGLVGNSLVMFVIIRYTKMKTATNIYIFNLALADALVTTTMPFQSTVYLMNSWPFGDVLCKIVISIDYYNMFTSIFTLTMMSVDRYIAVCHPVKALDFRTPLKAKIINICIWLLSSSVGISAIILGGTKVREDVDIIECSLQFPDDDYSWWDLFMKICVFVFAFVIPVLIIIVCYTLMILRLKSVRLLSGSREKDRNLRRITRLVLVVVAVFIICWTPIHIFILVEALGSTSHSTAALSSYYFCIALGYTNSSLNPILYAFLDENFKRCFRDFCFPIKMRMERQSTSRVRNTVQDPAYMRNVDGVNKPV
Procedure: as §1, §2, §3, §4, §5

[8] = test system: graft versus host reaction; experiment: Suppression of graft versus host reaction; format: in vivo, mouse (BDF1; C57BL/6 spleen cells); conditions: oral; for Suppression Rate of Graft versus Host Reaction: 100 mg/kg, once a day for 5 days, lymph node weight day 7, 4 cases, ** significance level < 0.02 (NTB), * < 0.05 (NTI); for graft versus host reaction: in words
Procedure: It is known that a graft versus host reaction occurs when spleen cells of a parent are transplanted to F1 mouse. In this system, NTI, NTB or cyclosporine A was administered to F1 mouse and the effects of these compounds on the graft versus host reaction were examined.
C57BL/6 mouse was sacrificed and the spleen was removed. Using phosphate buffered saline, a suspension of spleen cells (2×10^8 cells/ml) was prepared. To plantar of left hind leg of BDF1 mice, 50 μl of this spleen cell suspension was subcutaneously injected. From the day of this injection, each test compound was administered once a day for 5 days. The dose was 100 mg/kg and suspensions of the test compounds in 0.5% carboxymethyl cellulose (hereinafter referred to as "CMC") were orally administered. To the control group, 0.5% CMC alone was administered in the same manner. On the 7th day from the day of injection of the spleen cells, the mice were sacrificed and popliteal lymph nodes of right and left hind legs were removed and the weight of the lymph nodes was measured. The difference between the weight of the lymph nodes of the right and left hind legs was calculated and the difference was used as an index of the graft versus host reaction. The obtained results were analyzed by Student's t-test.
The suppression rate of graft versus host reaction was calculated according to the following equation: [formula]

## C=CC[C@@H]1/C=C(\C)C[C@H](C)C[C@H](OC)[C@H]2O[C@@](O)(C(=O)C(=O)N3CCCC[C@H]3C(=O)O[C@H](/C(C)=C/[C@@H]3CC[C@@H](O)[C@H](OC)C3)[C@H](C)[C@@H](O)CC1=O)[C@H](C)C[C@@H]2OC [FK-506]
[1]
  toxicity to liver: strong toxicity to liver
[2]
  toxicity to kidney: stronger toxicity to kidney than cyclosporine A

## Oc1ccc2c3c1O[C@H]1c4[nH]c5ccccc5c4C[C@@]4(O)[C@@H](C2)N(CC2CC2)CC[C@]314 [NTI, naltrindole]
[3]
  concentration dependency of antagonistic activity: increases proportionally with its concentration
  Slope: 1.330
  γ: 0.791
  pA2 (50% Confidence Limit): 7.42 (7.26-7.58)
[4]
  inhibition at 1 µg/mL: 12%
  inhibition at 10 µg/mL: 77%
  inhibition at 50 µg/mL: 100%
[5]
  inhibition at 1 µg/mL: 0%
  inhibition at 10 µg/mL: 100%
  inhibition at 50 µg/mL: 100%
  MLR reaction: suppressed
[6]
  κ/δ: 104
  μ/δ: 91
  selectivity to the δ receptors with respect to κ receptors: about 100 times
  selectivity to the δ receptors with respect to μ receptors: about 100 times
  concentration dependency of antagonistic activity: increases proportionally with its concentration
  Slope: 1.354
  γ: 0.863
  Kb: 0.417 nM
[7]
  concentration dependency of antagonistic activity: increases proportionally with its concentration
  Slope: 1.807
  γ: 0.941
  Kb: 43.7 nM
[8]
  Suppression Rate of Graft versus Host Reaction: 47%
  graft versus host reaction: suppressed

## C=CCN1CC[C@]23c4c5ccc(O)c4O[C@H]2c2[nH]c4ccccc4c2C[C@@]3(O)[C@H]1C5 [NLI, naloxindole]
[3]
  concentration dependency of antagonistic activity: did not show dependency on the concentration
  Slope: -0.063
  γ: -0.062
  pA2 (50% Confidence Limit): 6.86 ± 0.01
[4]
  inhibition at 1 µg/mL: 12%
  inhibition at 10 µg/mL: 56%
  inhibition at 50 µg/mL: 100%
[5]
  inhibition at 1 µg/mL: 22%
  inhibition at 10 µg/mL: 95%
  inhibition at 50 µg/mL: 100%
  MLR reaction: suppressed
[6]
  κ/δ: 407
  μ/δ: 251
  selectivity to the δ receptors with respect to κ receptors: about 400 times
  selectivity to the δ receptors with respect to μ receptors: about 250 times
  concentration dependency of antagonistic activity: concentration-dependent
  Slope: 1.066
  γ: 0.936
  Kb: 0.55 nM
[6]; in words, NLI vs NTI
  affinity to δ receptors: slightly inferior to NTI
[7]
  concentration dependency of antagonistic activity: did not show dependency on the concentration
  Slope: 0.105
  γ: 0.149
  Kb: 141 nM

## Oc1ccc2c3c1O[C@H]1c4oc5ccccc5c4C[C@@]4(O)[C@@H](C2)N(CC2CC2)CC[C@]314 [NTB, naltrbenzofuran]
[4]
  inhibition at 1 µg/mL: 14%
  inhibition at 10 µg/mL: 41%
  inhibition at 50 µg/mL: 100%
[5]
  inhibition at 1 µg/mL: 5%
  inhibition at 10 µg/mL: 81%
  inhibition at 50 µg/mL: 100%
  MLR reaction: suppressed
[8]
  Suppression Rate of Graft versus Host Reaction: 44%
  graft versus host reaction: suppressed
